Source: ChEMBL document CHEMBL3399969, “Multifunctional scutellarin-rivastigmine hybrids with cholinergic, antioxidant, biometal chelating and neuroprotective properties for the treatment of Alzheimer's disease” (Bioorg Med Chem, 2015)

Legend:
Acetylcholinesterase = target: T1, Acetylcholinesterase (Rattus norvegicus, UniProt P37136); test: Inhibition of rat cortex AChE using acetylthiocholine iodide as substrate after 15 mins by Ellman method
T1 sequence (P37136 whole entry): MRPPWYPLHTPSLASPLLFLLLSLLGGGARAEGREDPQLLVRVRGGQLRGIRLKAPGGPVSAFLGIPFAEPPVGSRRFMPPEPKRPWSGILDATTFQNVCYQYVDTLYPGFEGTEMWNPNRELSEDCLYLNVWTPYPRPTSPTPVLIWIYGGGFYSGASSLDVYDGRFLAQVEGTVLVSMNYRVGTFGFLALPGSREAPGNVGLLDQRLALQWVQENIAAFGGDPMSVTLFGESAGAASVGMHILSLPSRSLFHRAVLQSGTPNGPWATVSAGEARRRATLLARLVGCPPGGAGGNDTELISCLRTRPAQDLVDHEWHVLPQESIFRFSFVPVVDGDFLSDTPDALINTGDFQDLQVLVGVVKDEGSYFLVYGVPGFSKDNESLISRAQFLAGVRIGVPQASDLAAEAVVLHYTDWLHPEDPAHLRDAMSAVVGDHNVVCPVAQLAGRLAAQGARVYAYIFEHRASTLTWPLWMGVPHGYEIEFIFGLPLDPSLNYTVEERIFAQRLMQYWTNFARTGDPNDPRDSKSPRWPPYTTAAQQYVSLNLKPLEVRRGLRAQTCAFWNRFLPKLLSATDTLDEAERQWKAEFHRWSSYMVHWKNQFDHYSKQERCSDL

[1] = Inhibition of rat serum BuChE using butyrylthiocholine iodide as substrate after 15 mins by Ellman method; format: cell-free
Rattus norvegicus = species on record: Rattus norvegicus; test: Selectivity index, ratio of IC50 for rat serum BuChE to IC50 for rat cortex AChE; format: cell-free
[2] = Antioxidant activity assessed as trolox equivalent of […]-induced radical scavenging activity by ORAC-FL method; format: physicochemical
PC-12 = test: Neuroprotective effect against H2O2-induced rat PC12 cell injury assessed as cell viability at 10 uM incubated for 2 hrs prior to H2O2 challenge measured after 24 hrs by MTT assay (reference value: 57.6%); format: functional; conditions: read-out: Activity
[3] = Metal chelating activity of the compound assessed as Cu2+ complex formation after 30 mins by UV-Vis spectrometry; format: physicochemical; conditions: 0.5 h
[4] = Metal chelating activity of the compound assessed as Zn2+ complex formation after 30 mins by UV-Vis spectrometry; format: physicochemical; conditions: 0.5 h
[5] = Metal chelating activity of the compound assessed as Al3+ complex formation after 30 mins by UV-Vis spectrometry; format: physicochemical; conditions: 0.5 h
[6] = Metal chelating activity of the compound assessed as Fe2+ complex formation after 30 mins by UV-Vis spectrometry; format: physicochemical; conditions: 0.5 h

## COc1cc2oc(-c3cccc(OC(=O)N4CCN(Cc5ccccc5)CC4)c3)cc(=O)c2c(O)c1OC
Acetylcholinesterase
  IC50: 51.7 µM
[1]
  IC50: 15.7 µM
Rattus norvegicus
  Ratio IC50: 0.3
[2]
  Activity: 1.3
PC-12
  viability at 10 µM: 80.3%

## COc1cc2oc(-c3cccc(OC(=O)N(C(C)C)C(C)C)c3)cc(=O)c2c(O)c1OC
Acetylcholinesterase
  IC50: 96.5 µM
[1]
  IC50: > 100 µM
Rattus norvegicus
  Ratio IC50: > 1
[2]
  Activity: 1.1

## COc1cc2oc(-c3cccc(OC(=O)N4CCN(C)CC4)c3)cc(=O)c2c(OC)c1OC
Acetylcholinesterase
  IC50: 31.2 µM
[1]
  IC50: > 100 µM
Rattus norvegicus
  Ratio IC50: > 3.2
[2]
  Activity: 0.36
PC-12
  viability at 10 µM: 82.1%

## CCN(C)C(=O)Oc1ccc(-c2cc(=O)c3c(O)c(OC)c(OC)cc3o2)cc1
Acetylcholinesterase
  IC50: 2.1 µM
[1]
  IC50: 38.1 µM
Rattus norvegicus
  Ratio IC50: 18.1
[2]
  Activity: 1.1
PC-12
  viability at 10 µM: 78.3%

## COc1cc2oc(-c3cccc(OC(=O)N4CCOCC4)c3)cc(=O)c2c(O)c1OC
Acetylcholinesterase
  IC50: > 100 µM
[1]
  IC50: > 100 µM
[2]
  Activity: 1.2
PC-12
  viability at 10 µM: 66.1%

## CCN(CC)C(=O)Oc1cccc(-c2cc(=O)c3c(O)c(OC)c(OC)cc3o2)c1
Acetylcholinesterase
  IC50: 10.3 µM
[1]
  IC50: 34.5 µM
Rattus norvegicus
  Ratio IC50: 3.3
[2]
  Activity: 1.3

## CCN(C)C(=O)Oc1cccc(-c2cc(=O)c3c(O)c(OC)c(OC)cc3o2)c1
Acetylcholinesterase
  IC50: 14.8 µM
[1]
  IC50: > 100 µM
Rattus norvegicus
  Ratio IC50: > 6.8
[2]
  Activity: 0.9

## COc1cc2oc(-c3ccc(OC(=O)N(C)C)cc3)cc(=O)c2c(O)c1OC
Acetylcholinesterase
  IC50: 17.3 µM
[1]
  IC50: 61.5 µM
Rattus norvegicus
  Ratio IC50: 3.6
[2]
  Activity: 1.2
PC-12
  viability at 10 µM: 76.7%

## CCN(CC)C(=O)Oc1ccc(-c2cc(=O)c3c(OC)c(OC)c(OC)cc3o2)cc1
Acetylcholinesterase
  IC50: 0.34 µM
[1]
  IC50: 8.2 µM
Rattus norvegicus
  Ratio IC50: 24.1
[3]
  Activity: Active
[4]
  Activity: Active
[5]
  Activity: Active
[6]
  Activity: Active
[2]
  Activity: 0.36
PC-12
  viability at 10 µM: 70.3%

## COc1cc2oc(-c3ccc(OC(=O)N4CCOCC4)cc3)cc(=O)c2c(O)c1OC
Acetylcholinesterase
  IC50: > 100 µM
[1]
  IC50: > 100 µM
[2]
  Activity: 0.9
PC-12
  viability at 10 µM: 66.5%

## COc1cc2oc(-c3ccc(OC(=O)N4CCN(C)CC4)cc3)cc(=O)c2c(OC)c1OC
Acetylcholinesterase
  IC50: 11.4 µM
[1]
  IC50: 63.8 µM
Rattus norvegicus
  Ratio IC50: 5.6
[2]
  Activity: 0.29
PC-12
  viability at 10 µM: 82.4%

## COc1cc2oc(-c3ccc(OC(=O)N4CCN(C)CC4)cc3)cc(=O)c2c(O)c1OC
Acetylcholinesterase
  IC50: 5 µM
[1]
  IC50: > 100 µM
Rattus norvegicus
  Ratio IC50: > 20
[2]
  Activity: 1

## COc1cc2oc(-c3ccc(OC(=O)N(C(C)C)C(C)C)cc3)cc(=O)c2c(O)c1OC
Acetylcholinesterase
  IC50: > 100 µM
[1]
  IC50: > 100 µM
[2]
  Activity: 1
PC-12
  viability at 10 µM: 68.7%

## CCN(C)C(=O)Oc1ccc(-c2cc(=O)c3c(OC)c(OC)c(OC)cc3o2)cc1
Acetylcholinesterase
  IC50: 1.54 µM
[1]
  IC50: 6.2 µM
Rattus norvegicus
  Ratio IC50: 4
[2]
  Activity: 0.34
PC-12
  viability at 10 µM: 75.1%

## COc1cc2oc(-c3cccc(OC(=O)N4CCOCC4)c3)cc(=O)c2c(OC)c1OC
Acetylcholinesterase
  IC50: > 100 µM
[1]
  IC50: > 100 µM
[2]
  Activity: 0.29

## COc1cc2oc(-c3cccc(OC(=O)N4CCCCC4)c3)cc(=O)c2c(O)c1OC
Acetylcholinesterase
  IC50: > 100 µM
[1]
  IC50: > 100 µM
[2]
  Activity: 1.1

## COc1cc2oc(-c3cccc(O)c3)cc(=O)c2c(OC)c1OC
Acetylcholinesterase
  IC50: > 100 µM
[1]
  IC50: > 100 µM
[2]
  Activity: 1.8

## COc1cc2oc(-c3ccc(OC(=O)N4CCN(Cc5ccccc5)CC4)cc3)cc(=O)c2c(OC)c1OC
Acetylcholinesterase
  IC50: 1.04 µM
[1]
  IC50: 37.2 µM
Rattus norvegicus
  Ratio IC50: 35.8
[2]
  Activity: 0.32
PC-12
  viability at 10 µM: 81.9%

## COc1cc2oc(-c3ccc(O)cc3)cc(=O)c2c(O)c1OC [CIRSIMARITIN]
Acetylcholinesterase
  IC50: > 100 µM
[1]
  IC50: > 100 µM
[2]
  Activity: 5.4

## COc1cc2oc(-c3ccc(O)cc3)cc(=O)c2c(OC)c1OC
Acetylcholinesterase
  IC50: > 100 µM
[1]
  IC50: > 100 µM
[2]
  Activity: 2.6

## COc1cc2oc(-c3cccc(OC(=O)N4CCN(C)CC4)c3)cc(=O)c2c(O)c1OC
Acetylcholinesterase
  IC50: 23.3 µM
[1]
  IC50: 68.2 µM
Rattus norvegicus
  Ratio IC50: 2.9
[2]
  Activity: 1.2

## COc1cc2oc(-c3cccc(OC(=O)N(C)C)c3)cc(=O)c2c(OC)c1OC
Acetylcholinesterase
  IC50: 37.3 µM
[1]
  IC50: 28.3 µM
Rattus norvegicus
  Ratio IC50: 0.8
[2]
  Activity: 0.28
PC-12
  viability at 10 µM: 69.3%

## COc1cc2oc(-c3ccc(OC(=O)N4CCCCC4)cc3)cc(=O)c2c(O)c1OC
Acetylcholinesterase
  IC50: 17.8 µM
[1]
  IC50: > 100 µM
Rattus norvegicus
  Ratio IC50: > 5.6
[2]
  Activity: 1.1
PC-12
  viability at 10 µM: 79.6%

## COc1cc2oc(-c3cccc(OC(=O)N(C(C)C)C(C)C)c3)cc(=O)c2c(OC)c1OC
Acetylcholinesterase
  IC50: 87.5 µM
[1]
  IC50: > 100 µM
Rattus norvegicus
  Ratio IC50: > 1.1
[2]
  Activity: 0.3

## COc1cc2oc(-c3cccc(OC(=O)N4CCCCC4)c3)cc(=O)c2c(OC)c1OC
Acetylcholinesterase
  IC50: 45.7 µM
[1]
  IC50: 26.8 µM
Rattus norvegicus
  Ratio IC50: 0.6
[2]
  Activity: 0.31
PC-12
  viability at 10 µM: 72.5%

## COc1cc2oc(-c3cccc(O)c3)cc(=O)c2c(O)c1OC
Acetylcholinesterase
  IC50: > 100 µM
[1]
  IC50: > 100 µM
[2]
  Activity: 3.7

## COc1cc2oc(-c3ccc(OC(=O)N4CCN(Cc5ccccc5)CC4)cc3)cc(=O)c2c(O)c1OC
Acetylcholinesterase
  IC50: 9.25 µM
[1]
  IC50: > 100 µM
Rattus norvegicus
  Ratio IC50: > 10.8
[2]
  Activity: 0.9
PC-12
  viability at 10 µM: 84.5%

## COc1cc2oc(-c3ccc(OC(=O)N(C(C)C)C(C)C)cc3)cc(=O)c2c(OC)c1OC
Acetylcholinesterase
  IC50: 13.7 µM
[1]
  IC50: 38.2 µM
Rattus norvegicus
  Ratio IC50: 2.8
[2]
  Activity: 0.33

## COc1cc2oc(-c3ccc(OC(=O)N4CCOCC4)cc3)cc(=O)c2c(OC)c1OC
Acetylcholinesterase
  IC50: 68.3 µM
[1]
  IC50: > 100 µM
Rattus norvegicus
  Ratio IC50: > 1.5
[2]
  Activity: 0.27

## CCN(CC)C(=O)Oc1cccc(-c2cc(=O)c3c(OC)c(OC)c(OC)cc3o2)c1
Acetylcholinesterase
  IC50: 6.11 µM
[1]
  IC50: 30.1 µM
Rattus norvegicus
  Ratio IC50: 4.9
[2]
  Activity: 0.31
PC-12
  viability at 10 µM: 70.8%

## COc1cc2oc(-c3ccc(OC(=O)N4CCCCC4)cc3)cc(=O)c2c(OC)c1OC
Acetylcholinesterase
  IC50: 21.2 µM
[1]
  IC50: 15.3 µM
Rattus norvegicus
  Ratio IC50: 0.7
[2]
  Activity: 0.31
PC-12
  viability at 10 µM: 65.2%

## COc1cc2oc(-c3ccc(OC(=O)N(C)C)cc3)cc(=O)c2c(OC)c1OC
Acetylcholinesterase
  IC50: 8.24 µM
[1]
  IC50: 7.3 µM
Rattus norvegicus
  Ratio IC50: 0.9
[2]
  Activity: 0.32
PC-12
  viability at 10 µM: 73.5%

## COc1cc2oc(-c3cccc(OC(=O)N(C)C)c3)cc(=O)c2c(O)c1OC
Acetylcholinesterase
  IC50: 25.7 µM
[1]
  IC50: 23.6 µM
Rattus norvegicus
  Ratio IC50: 0.9
[2]
  Activity: 1.2

## COc1cc2oc(-c3cccc(OC(=O)N4CCN(Cc5ccccc5)CC4)c3)cc(=O)c2c(OC)c1OC
Acetylcholinesterase
  IC50: 87.1 µM
[1]
  IC50: 7.1 µM
Rattus norvegicus
  Ratio IC50: 0.1
[2]
  Activity: 0.34

## CCN(C)C(=O)Oc1cccc(-c2cc(=O)c3c(OC)c(OC)c(OC)cc3o2)c1
Acetylcholinesterase
  IC50: 7.37 µM
[1]
  IC50: 38.1 µM
Rattus norvegicus
  Ratio IC50: 5.2
[2]
  Activity: 0.32
PC-12
  viability at 10 µM: 70.8%
